Assay results taken from paper PMC10382589, “In vitro and in vivo antiplasmodial evaluation of sugar-modified nucleoside analogues” (Scientific Reports, 2023).
“Also recorded” adds a separate entry of the source. Where two headings read alike, the source gives them in different places.

Experiments:
[1] = system: chloroquine resistant strain PfRKL-9; test: SYBR green I based fluorescence growth inhibition assay, PfRKL-9; assay type: cell-based; settings: Plasmodium falciparum, synchronized late trophozoite parasites, triplicate, mean ± SD, read-out: IC50 (µM) against PfRKL-9
Protocol: (§1) The percent growth inhibition of the parasites was evaluated by SYBR Green assay.
(§2) Pf3D7 and PfRKL-9 were cultured by following procedure reported by Trager and Jensen[33]. […] In order to examine the morphological changes in the parasite, a blood film must be prepared. A thin blood film was air-dried, fixed with methanol, and allowed to dry before staining. […] Light microscopy analysis was carried out to evaluate the inhibitory effect of compounds at different concentrations against Pf3D7 and PfRKL-9.
(§3) SYBR green I based fluorescence assay was performed to measure the growth inhibition effect of the 26 compounds and further dose dependent assay against Pf3D7, and PfRKL-9 (Indian field strain, source- NIMR, New Delhi, India) was carried out at different concentrations. In brief, Pf3D7 and PfRKL-9 parasitized erythrocytes (trophozoite stage with 1% parasitemia) were diluted with noninfected erythrocytes at a constant 2% hematocrit in culture medium. Parasitized erythrocytes were treated with different concentrations of compounds ranging from 1 µM to 10 µM, whereas DMSO worked as a control. Triplicate wells of parasitized erythrocytes treated with compounds were seeded in 96 well microtiter plate following incubation at 37 °C for one cycle of parasite growth. […] Growth inhibition (%) was calculated as follows: % Inhibition = [1 − % Parasitemia (Treatment)/% Parasitemia (Control)] *100. Data were expressed as mean ± SD.

[2] = system: Pf3D7 chloroquine-sensitive strain; test: SYBR green I based fluorescence growth inhibition assay, Pf3D7; assay type: cell-based, Plasmodium falciparum; settings: for IC50: Plasmodium falciparum, chloroquine-sensitive strain, synchronized late trophozoite parasites, SYBR Green, triplicate, mean ± SD, read-out: IC50 (µM) against Pf3D7; for growth inhibition against Pf3D7 (in words): screen at 1 µM and 10 µM, vs untreated control (Fig. S1)
Protocol: Growth of one intraerythrocytic cycle of Pf was monitored after treated with compounds whereas untreated parasites were considered as control.
as §1, §2
as §3, with “In brief, Pf3D7 and PfRKL-9 parasitized erythrocytes (trophozoite stage with 1% parasitemia) were diluted with noninfected erythrocytes at a constant 2% hematocrit in culture medium.” left out

[3] = system: human RBCs; test: Hemolytic activity on human RBCs; assay type: cell-based; settings: 0.5-20 µM, 10% (v/v) RBC suspension, 1 h, absorbance at 415 nm
Protocol: Effect of compounds on human RBCs was checked with the help of spectrophotometry by measuring the lysis of human red blood cells (hRBCs). Compounds were tested at 0.5, 1, 5, 10 and 20 μM concentrations with 10% (v/v) RBCs suspension for 1 h and observed the percentage of RBCs lysis by compounds 7, 16, 17, 18 and 1.
Human RBCs were from Rotary Blood Bank, Tughlakabad Institutional Area, New Delhi, India. Effect of compounds on RBCs was checked by hemolytic assay. In brief, RBCs suspension with 10% (v/v) washed with 1 × Phosphate-buffered saline (PBS) (pH 7.4) and again resuspended in 1 × PBS. RBCs suspension was incubated with compounds 7, 16, 17, 18 and 1 at different concentrations (0.5, 1, 5, 10 and 20 μM) for 1 h at 37 °C. Samples were centrifuged and supernatant was taken for absorbance at 415 nm. Triton X-100 with 1% (v/v) was used as a positive control. Experiment was done in triplicate.

[4] = system: embryonic kidney cell lines, HEK-293
Protocol: Cytotoxicity against human embryonic kidney cell line (ATCC) was determined using MTT dye[35]. In order to measuring the cytotoxicity of the compounds we used MTT dye to detect live/dead cells. […] cells were stored at 37 °C, 5% CO2 in […] sterile culture flasks (Corning) in complete Dulbecco's Modified Eagle Medium (DMEM) culture medium (a) supplemented with 5% Fetal Bovine Serum (FBS), gentamicin ([…]), with changing the medium thrice a week. The monolayers were washed, counted, diluted in complete medium, distributed in 96-well microtiter plates (5000 cells/well), followed by incubation for another 24 h at 37 °C. The test compounds and DMSO were added in triplicate. After a 48 h incubation at 37 °C, the supernatant was removed and 100 µL of MTT solution in complete DMEM was added to each well, followed by 2 h incubation at 37 °C. The culture plates were read in a spectrophotometer (Tecan infinite M200, nanoquant, UK) with a 490 nm filter, and the cytotoxic concentrations were determined based on a dose response curve.

[5] = system: Mitochondrial membrane potential of the malaria parasites; test: JC-1 mitochondrial membrane potential assay; assay type: cell-based, Plasmodium falciparum; settings: parasites treated with IC50 concentration for 3 h; untreated control 7.04 ± 1.30
Source text: Mitochondrial membrane potential is a marker of mitochondria’s functional status. Modification in mitochondrial membrane potential leading to mitochondrial dysfunction triggers cell death[25],[26]. Mitochondrial dysfunction was detected by using membrane permeant JC-1 dye. JC-1 is a cationic probe, due to electronegative environment inside the functionally active mitochondria with high Δψm, it aggregates in energised mitochondria and gives red color fluorescence at 590 nm, but in case of low Δψm (depolarized state), JC-1 remain in monomeric form and gives green color fluorescence at […]. Decreased ratio of red/green fluorescence intensity of compound treated sample as compared to untreated control indicates depolarized mitochondrial membrane[27],[28]. The damage to the parasite's mitochondria after treatment with compounds 7, 16, 17, 18 and 1 was measured according to the method reported previously. Because of lipophilic nature of the JC-1, it is cell permeable and emits a green signal (525 nm) in the cytoplasm, but the high transmembrane potential of functional mitochondria causes it to aggregate and emit a red signal (590 nm). […]. Mitochondrial membrane potential of the malaria parasites was determined by using MitoProbe™ JC-1 assay as described previously. In brief, trophozoite stage parasites (10–12% parasitemia) were treated with IC50 concentration of compounds 7, 16, 17, 18 and 1 for 3 h at 37 °C in the CO2 incubator. Samples were washed with 1 × PBS by centrifugation at 500 × g for 2 min at RT. Freshly prepared JC-1 dye was added to each sample with working concentration of 5 µg/mL. Incubation was done for 30 min at 37 °C in a CO2 incubator. Cells were washed twice with 1 × PBS. Spectrofluorometer was used to observe mitochondrial membrane potential by measuring fluoroscence intensities from the parasite lysate at wavelength of excitation (520 nm) and emission (590 nm) respectively. In vivo cell imaging was done with the help of Olympus fluoview 3000 confocal microscopy. Live cell imaging was observed under a 100X objective (oil immersion) and band pass filter at 355–460 nm. Experiments were repeated thrice and only representative figures are shown (Fig. 6).

[6] = system: P. berghei ANKA; test: In vivo antiplasmodial activity in P. berghei ANKA infected BALB/c mice; set-up: species or system Plasmodium berghei ANKA
Protocol: In vivo antiplasmodial efficacy of 7 was assessed in P. berghei ANKA infected BALB/c mice model. Compound dose was given intra-peritoneal injections for seven days in a row. To check the parasitemia, thin blood smears were made from P. berghei ANKA infected mice for up to seven consecutive days. […] Compound 7 was able to effectively reduce the parasite load compared to a control group of untreated mice for seven consecutive days post infection.
To make relevant inferences, statistical analyses were carried out on the in vivo data using Graphpad Prism data sheets.
Antiplasmodial activity of hit compound 7 was investigated in mice model with the help of protocol described previously. Briefly, intra-peritoneal injection of 1 × 10^7 Plasmodium berghei ANKA infected erythrocytes diluted with sterile 1 × PBS was injected into mice. In each group five mice were taken. Thin smears were made from the tail blood of mice to check the infection. Post infection, P. berghei infected mice administered intra-peritoneally with compound 7 with the dose of 50 mg/kg body weight, daily for seven consecutive days post infection. Mice treated with 1xPBS were kept as vehicle control. […] Data were calculated and presented as percentage increase in the parasitemia. All animal experiments were carried out in accordance with the standard approved procedures. […]

[7] = HEK-293 cells, MTT, 48 h incubation

Structure (SMILES) | IC50 [1] | IC50 [2] | growth inhibition against Pf3D7 (in words) [2] | lysis of human RBCs (in words) [3] | Cell survival (%) at 500 µM ([4]; human, 48 h) | JC-1 red/green ratio [5] | percentage parasitemia on the seventh day ([6]; 50 mg/kg intra-peritoneal, seven days, control 25%) | Mean survival time (MST) ([6]; 50 mg/kg, observed 21 days post-infection, control MST = 10 days) | Cell survival (%) at 500 µM [4, 7]
CC(=O)N[C@@H]1[C@@H](OC(C)=O)[C@H](OC(C)=O)[C@@H](COC(C)=O)O[C@H]1SC[C@@H]1[C@@H](O[Si](C)(C)C(C)(C)C)[C@H](n2cc(C)c(=O)[nH]c2=O)O[C@@H]1CO[Si](C)(C)C(C)(C)C [Compound 18, 1-[3’-Deoxy-3’-C-((2-acetamido-3,4,6-tri-O-acetyl-β-D-glucopyranosylthio)methyl)-2’,5’-di-O-(tert-butyldimethylsilyl)-β-D-xylofuranosyl]-5-methyluracil] | 2.21 ± 1.3 µM | 1.15 ± 1.5 µM | significant growth inhibition in a dose dependent manner | no significant lysis | 60% | 5.53 ± 1.40 |  |  | 
CC(=O)OC[C@H]1O[C@@H](SC[C@@H]2O[C@@H](n3cnc4c(NC(c5ccccc5)(c5ccccc5)c5ccccc5)ncnc43)[C@@H]3OC(C)(C)O[C@@H]32)[C@H](OC(C)=O)[C@@H](OC(C)=O)[C@@H]1OC(C)=O [Compound 7, 1-[2’,3’-O-isopropylidene-5’-S-(2,3,4,6-tetra-O-acetyl-β-D-glucopyranosyl)-5’-thio-α-L-lyxofuranosyl]-N-trityl-adenine] | 2.1 ± 1.3 µM | 0.92 ± 1.8 µM | significant growth inhibition in a dose dependent manner | no significant lysis |  | 5.26 ± 1.13 | 10% | 14 days | 55%
Cc1cn([C@@H]2O[C@H](CN3C[C@@H](COC(c4ccccc4)(c4ccccc4)c4ccccc4)O[C@@H](n4ccc(=O)[nH]c4=O)C3)[C@H]3OC(C)(C)O[C@H]32)c(=O)[nH]c1=O [Compound 1] | 1.83 ± 0.7 µM | 1.31 ± 1.1 µM | significant growth inhibition in a dose dependent manner; also recorded: good/excellent inhibitory effect | no significant lysis |  | 5.69 ± 0.70 |  |  | 45%
CC(=O)O[C@@H]1[C@@H](OC(C)=O)[C@H](SC[C@@H]2[C@@H](O[Si](C)(C)C(C)(C)C)[C@H](n3ccc(=O)[nH]c3=O)O[C@@H]2CO[Si](C)(C)C(C)(C)C)OC[C@H]1OC(C)=O [Compound 17, 1-[3’-Deoxy-3’-C-(-2,3,4-tri-O-acetyl-β-D-xylopyranosyl-sulfanylmethyl)-2’,5’-di-O-(tert-butyldimethylsilyl)-β-D-xylofuranosyl]-uracil] | 1.84 ± 1.06 µM | 1.33 ± 1.07 µM | significant growth inhibition in a dose dependent manner | no significant lysis | 51% | 6.28 ± 1.55 |  |  | 
